Consider 22 molecules from patent US20070225303A1, “8-Oxoadenine Compound” (priority 2004, published 2007).

Data set [1] has as its system spleen cells. In words: cells. It is filed as cell-based. The settings on record: 24 h, read-out: Minimum effective concentration (interferon inducing activity), CD(SD)IGS rat spleen cells, 24 hours incubation; interferon in supernatant by L929/vesicular stomatitis virus bioassay.
A short description of data set [2]: Metabolic stability test using human plasma. It is filed as in vitro ADME. The settings on record: 1 μM test compound, 37° C. for 15 minutes, residual amount per pre-metabolization concentration as 100%. The method, then: Plasma was prepared from fresh human blood and the test compound (containing 1% DMSO) of the final concentration of 1 μM was added thereto.
After a metabolic reaction by plasma esterase was conducted at 37° C. for 15 minutes, the test compound was extracted with ethyl acetate, and quantitatively analyzed by reverse phase HPLC. The metabolic stability of the test compound was shown by the residual amount (%) per the concentration of pre-metabolization as 100%.

Data set [3] in a line: Metabolic stability test on rat liver S9. Type of data set: in vitro ADME. The settings on record: rat liver S9 with NADPH, 1 μM test compound, 37° C.; residual rate after reaction, LC/MS. As to the method: The reaction using liver S9 of rat was conducted on a 96-well plate by using a screening robot by Tecan Company. S9 solution was prepared by adding 250 mM Kpi (pH 7.4) 20 ml and deionized water 20 ml to 10 ml of liver S9 of rat, a Cofactor solution was prepared by dissolving NADPH 220 mg in deionized water 40.5 ml (Final 6 mM), and IS (Internal Standard) solution was prepared by adding IS solution (1 mM DMSO solution) 300 μl to acetonitrile 30 ml (100 times dilution). The test compound (1 μM DMSO solution) was dissolved in an incubator at 37° C. After each 35 μL was poured in a 96-well plate (24 samples/plate), plates (sample plates, 96-well plates for dilution, each Deep well plates for the reaction and the recovery, plates for extraction of a solid phase) and reagents (S9 solution, Cofactor solution, IS (Internal Standard) solution, Stop solution, acetonitrile for elution) were set to the specified position in the booth of the robot, and the reaction started (the concentration of the test compounds was 1 μM). Incubation was conducted under shaking at 37° C., the solid phase was extracted (at the same time, the internal standard for analysis was added). To the recovered samples 200 μL/well was added 50 μL of acetonitrile per each well, and to 2 plates of FALCON Deep well were poured 100 μL/well of the solution per well. By subjecting to the LC/MS analysis, the chromatography of the test compound and the internal standard were described and the peak area was calculated. And then, the stability (residual rate after reaction) was calculated.

On to `Nc1nc(SCCCO)nc2c1nc(O)n2Cc1cccc(CC(=O)O)c1` [Comparative example 1, 9-(3-Carboxymethylbenzyl)-8-hydroxy-2-(3-hydroxypropylthio)adenine, reference compound], for which the minimal effective concentration in data set [1] was greater than 1 µM.

`Nc1nc(SCCCCO)nc2c1nc(O)n2Cc1cccc(CC(=O)O)c1` [Comparative example 2, 9-(3-Carboxymethylbenzyl)-8-hydroxy-2-(4-hydroxybutylthio)adenine, reference compound]: the minimal effective concentration in data set [1] turned out to be 1 µM.

As to `COC(=O)Cc1cccc(Cn2c(O)nc3c(N)nc(SCCCO)nc32)c1` [Example 1, 8-Hydroxy-2-(3-hydroxypropylthio)-9-(3-methoxycarbonylmethylbenzyl)adenine], the minimal effective concentration in data set [1] is 0.01 µM. The molecule further had a Residual rate in data set [2] of less than 1%.

As for `COC(=O)Cc1cccc(Cn2c(O)nc3c(N)nc(SCCCCO)nc32)c1` [Example 2, 8-Hydroxy-2-(4-hydroxybutylthio)-9-(3-methoxycarbonylmethylbenzyl)adenine], in data set [1], the minimal effective concentration came to 0.01 µM. For the same molecule, the Residual rate in data set [2] was less than 1%.

Take `COC(=O)Cc1cccc(Cn2c(O)nc3c(N)nc(OCCCO)nc32)c1` [Example 4, 8-Hydroxy-2-(3-hydroxypropoxy)-9-(3-methoxycarbonylmethylbenzyl)adenine]: the Residual rate stood at 8% in data set [3] and 3.2% in data set [2]. Further, the minimal effective concentration in data set [1] turned out to be 0.03 µM.

`COC(=O)Cc1cccc(Cn2c(O)nc3c(N)nc(OCCO)nc32)c1` [Example 5, 8-Hydroxy-2-(2-hydroxyethoxy)-9-(3-methoxycarbonylmethylbenzyl)adenine]: the minimal effective concentration in data set [1] worked out at 0.1 µM. The Residual rate in data set [2] turned out to be 5.8%.

Turning to `CCCCOc1nc(N)c2nc(O)n(CCc3cccc(CC(=O)OC)c3)c2n1` [Example 9, 2-Butoxy-8-hydroxy-9-[2-(3-methoxycarbonylmethylphenyl)ethyl]adenine], the Residual rate came to 0% in data set [3] and 7.9% in data set [2]. Further, in data set [1], the minimal effective concentration is 0.03 µM.

Regarding `CCCCOc1nc(N)c2nc(O)n(CCCc3cccc(CC(=O)OC)c3)c2n1` [Example 10, 2-Butoxy-8-hydroxy-9-[3-(3-methoxycarbonylmethylphenyl)propyl]adenine], the Residual rate is reported as 1% in data set [3] and less than 1% in data set [2]. Further, in data set [1], the minimal effective concentration stood at 0.01 µM.

`COC(=O)Cc1cccc(Cn2c(O)nc3c(N)nc(OCC(O)CO)nc32)c1` (stereo not shown) [Example 11, 2-(2,3-Dihydroxy-1-propoxy)-8-hydroxy-9-(3-methoxycarbonylmethylbenzyl)adenine]: in data set [2], the Residual rate is recorded as 20.9%.

Take `CCOCCOc1nc(N)c2nc(O)n(Cc3cccc(CC(=O)OC)c3)c2n1` [Example 12, 2-(2-Ethoxyethoxy)-8-hydroxy-9-(3-methoxycarbonylmethylbenzyl)adenine]: the Residual rate in data set [3] is 0%.

On to `COC(=O)Cc1cccc(Cn2c(O)nc3c(N)nc(OCC4CCCCC4)nc32)c1` [Example 13, 2-Cyclohexylmethoxy-8-hydroxy-9-(3-methoxycarbonylmethylbenzyl)adenine], for which the Residual rate in data set [3] was found to be 11%.

Molecule `COC(=O)CCc1nc(N)c2nc(O)n(Cc3cccc(CC(=O)OC)c3)c2n1` [Example 15, 8-Hydroxy-2-(2-methoxycarbonylethyl)-9-(3-methoxycarbonylmethylbenzyl)adenine] came in with a Residual rate in data set [3] of 0%.

As for `CCCCOc1nc(N)c2nc(O)n(Cc3ccc(CC(=O)OC)s3)c2n1` [Example 16, 2-Butoxy-8-hydroxy-9-{(5-methoxycarbonylmethyl-2-thienyl)methyl}adenine], the Residual rate in data set [3] is listed as 0%.

In the case of `CCCCOc1nc(N)c2nc(O)n(Cc3cccc(CC(=O)OC)n3)c2n1` [Example 18, 2-Butoxy-8-hydroxy-9-{(6-methoxycarbonylmethyl-2-pyridyl)methyl}adenine], the Residual rate in data set [3] is listed as 0%.

In data set [3], `CCCCOc1nc(N)c2nc(O)n(Cc3cc(CC(=O)OC)ccn3)c2n1` [Example 19, 2-Butoxy-8-hydroxy-9-{(4-methoxycarbonylmethyl-2-pyridyl)methyl}adenine] registered a Residual rate of 0%.

In turn, `CCCCOc1nc(N)c2[nH]c(=O)n(Cc3cc(CC(=O)OC)ccc3OC)c2n1` [Example 20, 2-Butoxy-8-hydroxy-9-[(2-methoxy-5-methoxycarbonylmethyl)benzyl]adenine] showed a Residual rate in data set [3] of 0%.

Regarding `CCCCOc1nc(N)c2[nH]c(=O)n(Cc3ccc(F)c(CC(=O)OC)c3)c2n1` [Example 21, 2-Butoxy-9-[(4-fluoro-3-methoxycarbonylmethyl)benzyl]-8-hydroxyadenine], the Residual rate in data set [3] amounted to 1%.

`CCCCOc1nc(N)c2[nH]c(=O)n(Cc3ccc(OC)c(CC(=O)OC)c3)c2n1` [Example 22, 2-Butoxy-8-hydroxy-9-[(4-methoxy-3-methoxycarbonylmethyl)benzyl]adenine] came in with a Residual rate in data set [3] of 2%.

For `Nc1nc(OCCCO)nc2c1nc(O)n2Cc1cccc(CC(=O)O)c1` [compound 4, 9-(3-Carboxymethylbenzyl)-8-hydroxy-2-(3-hydroxypropoxy)adenine, reference compound], the minimal effective concentration in data set [1] is greater than 1 µM.

Consider `Nc1nc(OCCO)nc2c1nc(O)n2Cc1cccc(CC(=O)O)c1` [compound 5, 9-(3-Carboxymethylbenzyl)-8-hydroxy-2-(2-hydroxyethoxy)adenine, reference compound], for which the minimal effective concentration in data set [1] is greater than 1 µM.

With `CCCCOc1nc(N)c2nc(O)n(CCc3cccc(CC(=O)O)c3)c2n1` [compound 9, 2-Butoxy-9-[2-(3-carboxymethylphenyl)ethyl]-8-hydroxyadenine, reference compound], the minimal effective concentration in data set [1] came to 0.3 µM.

On to `CCCCOc1nc(N)c2nc(O)n(CCCc3cccc(CC(=O)O)c3)c2n1` [compound 10, 2-Butoxy-9-[3-(3-carboxymethylphenyl)propyl]-8-hydroxyadenine, reference compound], for which, in data set [1], the minimal effective concentration was found to be 0.1 µM.
